From ChEMBL document CHEMBL1131863, “Synthesis and antibacterial activity of HMR 3647 a new ketolide highly potent against erythromycin-resistant and susceptible pathogens” (1999)
Values after ≈ are worked out from the molar mass of the structure shown.

Assays:
Format in all cases: functional
Escherichia coli [1] = experiment: The compound was tested in vitro for antibacterial activity against Escherichia coli 250 UCS.
Mus musculus [2] = experiment: (§1) The compound was tested in vivo for antibacterial activity against AmpR beta(+) Haemophilus influenza 351RD7 in mice after oral administration
Mus musculus [3] = experiment: (§2) The compound was tested in vivo for antibacterial activity against AmpR beta(-) Haemophilus influenza 351TO19 in mice after oral administration
Mus musculus [4] = experiment: (§3) The compound was tested in vivo for antibacterial activity against Haemophilus influenza 351GR1 in mice after oral administration
Haemophilus influenzae [5] = experiment: The compound was tested in vitro for antibacterial activity against Haemophilus influenza 351HT3.
Mus musculus [6] = experiment: The compound was tested in vivo for antibacterial activity against constitutively erythromycin resistant Streptococcus pneumoniae 030Cr29 in mice after oral administration
Mus musculus [7] = experiment: The compound was tested in vivo for antibacterial activity against constitutively erythromycin resistant Streptococcus pneumoniae 030MV2 in mice after oral administration
Mus musculus [8] = experiment: The compound was tested in vivo for antibacterial activity against constitutively erythromycin resistant Streptococcus pneumoniae 030SJ1 in mice after oral administration
Mus musculus [9] = experiment: The compound was tested in vivo for antibacterial activity against constitutively erythromycin resistant Streptococcus pneumoniae 030SJ6 in mice after oral administration
Mus musculus [10] = experiment: The compound was tested in vivo for antibacterial activity against erythromycin susceptible Staphylococcus aureus 011UC4 in mice after oral administration
Mus musculus [11] = experiment: The compound was tested in vivo for antibacterial activity against erythromycin susceptible Streptococcus pneumoniae 032UC1 in mice after oral administration
Mus musculus [12] = experiment: The compound was tested in vivo for antibacterial activity against erythromycin susceptible Streptococcus pyogenes 02A1UC1 in mice after oral administration
Mus musculus [13] = experiment: The compound was tested in vivo for antibacterial activity against inducibly erythromycin resistant Streptococcus pneumoniae 030RO1 in mice after oral administration
Staphylococcus aureus [14] = experiment: The compound was tested in vitro for antibacterial activity against erythromycin susceptible Staphylococcus aureus 011UC4.
Staphylococcus aureus [15] = experiment: The compound was tested in vitro for antibacterial activity against inducibly erythromycin resistant Staphylococcus aureus 011GO25i.
Streptococcus pneumoniae [16] = experiment: The compound was tested in vitro for antibacterial activity against constitutively erythromycin resistant Streptococcus pneumoniae 030CR18c.
Streptococcus pneumoniae [17] = experiment: The compound was tested in vitro for antibacterial activity against constitutively erythromycin resistant Streptococcus pneumoniae 030PW23c.
Streptococcus pneumoniae [18] = experiment: The compound was tested in vitro for antibacterial activity against constitutively erythromycin resistant Streptococcus pneumoniae 030SJ1.
Streptococcus pneumoniae [19] = experiment: The compound was tested in vitro for antibacterial activity against erythromycin susceptible Streptococcus pneumoniae 032UC1.
Staphylococcus aureus [20] = experiment: The compound was tested in vitro for antibacterial activity against constitutively erythromycin resistant Staphylococcus aureus 011CB20.
Streptococcus pyogenes [21] = experiment: The compound was tested in vitro for antibacterial activity against erythromycin susceptible Streptococcus pyogenes 02A1UC1.
Streptococcus pneumoniae [22] = experiment: The compound was tested in vitro for antibacterial activity against inducibly erythromycin resistant Streptococcus pneumoniae 030J5i.
Escherichia coli [23] = experiment: The compound was tested in vitro for antibacterial activity against Escherichia coli 250 UCS
Haemophilus influenzae [24] = experiment: The compound was tested in vitro for antibacterial activity against Haemophilus influenza 351HT3
Mus musculus [25] = experiment: The compound was tested in vivo for antibacterial activity against inducibly erythromycin resistant Staphylococcus aureus 011GO3 in mice after oral administration
Staphylococcus aureus [26] = experiment: The compound was tested in vitro for antibacterial activity against erythromycin susceptible Staphylococcus aureus 011UC4
Staphylococcus aureus [27] = experiment: The compound was tested in vitro for antibacterial activity against inducibly erythromycin resistant Staphylococcus aureus 011GO25i
Streptococcus pneumoniae [28] = experiment: The compound was tested in vitro for antibacterial activity against constitutively erythromycin resistant Streptococcus pneumoniae 030CR18c
Streptococcus pneumoniae [29] = experiment: The compound was tested in vitro for antibacterial activity against constitutively erythromycin resistant Streptococcus pneumoniae 030PW23c
Streptococcus pneumoniae [30] = experiment: The compound was tested in vitro for antibacterial activity against constitutively erythromycin resistant Streptococcus pneumoniae 030SJ1
Streptococcus pyogenes [31] = experiment: The compound was tested in vitro for antibacterial activity against erythromycin susceptible Streptococcus pyogenes 02A1UC1
Staphylococcus aureus [32] = experiment: The compound was tested in vitro for antibacterial activity against constitutively erythromycin resistant Staphylococcus aureus 011CB20
Streptococcus pneumoniae [33] = experiment: The compound was tested in vitro for antibacterial activity against inducibly erythromycin resistant Streptococcus pneumoniae 030J5i
Streptococcus pneumoniae [34] = experiment: The compound was tested in vitro for antibacterial activity against erythromycin susceptible Streptococcus pneumoniae 032UC1
Haemophilus influenzae [35] = experiment: as §1
Haemophilus influenzae [36] = experiment: as §2
Haemophilus influenzae [37] = experiment: as §3

SMILES	MIC (Escherichia coli [1]) [µg/mL]	ED50 (Mus musculus [2]) [mg/kg]	ED50 (Mus musculus [3]) [mg/kg]	ED50 (Mus musculus [4]) [mg/kg]	MIC (Haemophilus influenzae [5]) [µg/mL]	ED50 (Mus musculus [6]) [mg/kg]	ED50 (Mus musculus [7]) [mg/kg]	ED50 (Mus musculus [8]) [mg/kg]	ED50 (Mus musculus [10]) [mg/kg]	ED50 (Mus musculus [11]) [mg/kg]	ED50 (Mus musculus [12]) [mg/kg]	MIC (Staphylococcus aureus [14]) [µg/mL]	MIC (Staphylococcus aureus [15]) [µg/mL]	MIC (Streptococcus pneumoniae [16]) [µg/mL]	MIC (Streptococcus pneumoniae [17]) [µg/mL]	MIC (Streptococcus pneumoniae [18]) [µg/mL]	MIC (Streptococcus pneumoniae [19]) [µg/mL]	MIC (Staphylococcus aureus [20]) [µg/mL]	MIC (Streptococcus pyogenes [21]) [µg/mL]	MIC (Streptococcus pneumoniae [22]) [µg/mL]	further results
CC[C@H]1OC(=O)[C@H](C)C(=O)[C@H](C)[C@@H](O[C@@H]2O[C@H](C)C[C@H](N(C)C)[C@H]2O)[C@](C)(OC)C[C@@H](C)C(=O)[C@H](C)[C@H]2N(CCCCn3cnc(-c4cccnc4)c3)C(=O)O[C@]12C [TELITHROMYCIN]	10 (≈ 12.3 µM)	57	40	68	1.2 (≈ 1.48 µM)	4.5	4	15	10	1	16	0.04 (≈ 0.0493 µM)	0.08 (≈ 0.0985 µM)	0.15 (≈ 0.185 µM)	0.08 (≈ 0.0985 µM)	0.08 (≈ 0.0985 µM)	0.02 (≈ 0.0246 µM)	40 (≈ 49.3 µM)	0.02 (≈ 0.0246 µM)	0.02 (≈ 0.0246 µM)	ED50 (Mus musculus [9]): 6.5 mg/kg; ED50 (Mus musculus [13]): 4 mg/kg
CC[C@H]1OC(=O)[C@H](C)[C@@H](O[C@H]2C[C@@](C)(OC)[C@@H](O)[C@H](C)O2)[C@H](C)[C@@H](O[C@@H]2O[C@H](C)C[C@H](N(C)C)[C@H]2O)[C@](C)(O)C[C@@H](C)CN(C)[C@H](C)[C@@H](O)[C@]1(C)O [AZITHROMYCIN]		94	145	56		> 50	> 50	> 50	30	6	16										MIC (Escherichia coli [23]): 20 µg/mL (≈ 26.7 µM); MIC (Haemophilus influenzae [24]): 1.2 µg/mL (≈ 1.6 µM); ED50 (Mus musculus [25]): > 100 mg/kg; ED50 (Mus musculus [13]): > 50 mg/kg; MIC (Staphylococcus aureus [26]): 0.3 µg/mL (≈ 0.401 µM); MIC (Staphylococcus aureus [27]): 40 µg/mL (≈ 53.4 µM); MIC (Streptococcus pneumoniae [28]): 40 µg/mL (≈ 53.4 µM); MIC (Streptococcus pneumoniae [29]): 40 µg/mL (≈ 53.4 µM); MIC (Streptococcus pneumoniae [30]): 40 µg/mL (≈ 53.4 µM); MIC (Streptococcus pyogenes [31]): 0.6 µg/mL (≈ 0.801 µM); MIC (Staphylococcus aureus [32]): 40 µg/mL (≈ 53.4 µM); MIC (Streptococcus pneumoniae [33]): 40 µg/mL (≈ 53.4 µM); MIC (Streptococcus pneumoniae [34]): 0.15 µg/mL (≈ 0.2 µM)
CC[C@H]1OC(=O)[C@H](C)C(=O)[C@H](C)[C@@H](O[C@@H]2O[C@H](C)C[C@H](N(C)C)[C@H]2O)[C@](C)(OC)C[C@@H](C)C(=O)[C@H](C)[C@H]2N(CCCCn3nnnc3-c3ccccc3)C(=O)O[C@]12C	20 (≈ 24.6 µM)				1.2 (≈ 1.48 µM)							0.02 (≈ 0.0246 µM)	0.6 (≈ 0.738 µM)	1.2 (≈ 1.48 µM)	0.6 (≈ 0.738 µM)	0.3 (≈ 0.369 µM)	0.02 (≈ 0.0246 µM)	40 (≈ 49.2 µM)	0.02 (≈ 0.0246 µM)	0.02 (≈ 0.0246 µM)	
CC[C@H]1OC(=O)[C@H](C)C(=O)[C@H](C)[C@@H](O[C@@H]2O[C@H](C)C[C@H](N(C)C)[C@H]2O)[C@](C)(OC)C[C@@H](C)C(=O)[C@H](C)[C@H]2N(CCCCn3cnc(-c4ccccc4)n3)C(=O)O[C@]12C	40 (≈ 49.3 µM)				1.2 (≈ 1.48 µM)							0.02 (≈ 0.0246 µM)	0.15 (≈ 0.185 µM)	1.2 (≈ 1.48 µM)	1.2 (≈ 1.48 µM)	0.6 (≈ 0.739 µM)	0.04 (≈ 0.0493 µM)	40 (≈ 49.3 µM)	0.02 (≈ 0.0246 µM)	0.3 (≈ 0.369 µM)	
CC1(C)S[C@@H]2[C@H](NC(=O)[C@H](N)c3ccccc3)C(=O)N2[C@H]1C(=O)O [AMPICILLIN]																					ED50 (Haemophilus influenzae [35]): > 600 mg/kg; ED50 (Haemophilus influenzae [36]): 39 mg/kg; ED50 (Haemophilus influenzae [37]): 5.5 mg/kg
